Patent US10167262B2, “Herbicidal substituted 3-arylpyrazoles” (FMC CORPORATION, priority 2014, dated 2019)

Tests used:
Type in all cases: in vivo
wild oat (Avena fatua) = experiment: Test C postemergence greenhouse test, plant response rating 0-100; settings: Avena fatua, post-emergence
From the text: (§1) At the same time, plants selected from these crop and weed species and also winter barley (Hordeum vulgare), bermudagrass (Cynodon dactylon), downy bromegrass (Bromus tectorum), canarygrass (Phalaris minor), cocklebur (common cocklebur, Xanthium strumarium), woolly cupgrass (Eriochloa villosa), deadnettle (henbit deadnettle, Lamium amplexicaule), green foxtail (Setaria viridis), goosegrass (Eleusine indica), surinam grass (Brachiaria decumbens), windgrass (Apera spica-venti), chickweed (common chickweed, Stellaria media), kochia (Kochia scoparia), and wild oat (Avena fatua), were planted in pots containing Redi-Earth® planting medium (Scotts Company, 14111 Scottslawn Road, Marysville, Ohio 43041) comprising spaghnum peat moss, vermiculite, wetting agent and starter nutrients and treated with postemergence applications of test chemicals formulated in the same manner. Plants ranged in height from 2 to 18 cm (1- to 4-leaf stage) for postemergence treatments. Treated plants and controls were maintained in a greenhouse for 13 to 15 days, after which time all species were compared to controls and visually evaluated. Plant response ratings, summarized in Table C, are based on a scale of 0 to 100 where 0 is no effect and 100 is complete control. A dash (-) response means no test result.

[1] = test system: chickweed (common chickweed, Stellaria media); experiment: as above; settings: Stellaria media, post-emergence
From the text: as §1

kochia (Kochia scoparia) = experiment: as above; settings: Bassia scoparia, post-emergence
From the text: as §1

[2] = test system: yellow nutsedge (Cyperus esculentus); experiment: Test C pre-/postemergence greenhouse test, plant response rating 0-100; settings: Cyperus, post-emergence, Postemergence
From the text: (§2) Seeds of plant species selected from blackgrass (Alopecurus myosuroides), Italian ryegrass (Lolium multiflorum), winter wheat (Triticum aestivum), galium (catchweed bedstraw, Galium aparine), corn (Zea mays), large (Lg) crabgrass (Digitaria sanguinalis), giant foxtail (Setaria faberii), johnsongrass (Sorghum halepense), lambsquarters (Chenopodium album), morningglory (Ipomoea coccinea), yellow nutsedge (Cyperus esculentus), pigweed (Amaranthus retroflexus), ragweed (common ragweed, Ambrosia elatior), soybean (Glycine max), barnyardgrass (Echinochloa crus-galli), oilseed rape (Brassica napus), waterhemp (common waterhemp, Amaranthus rudis), and velvetleaf (Abutilon theophrasti) were planted into a blend of loam soil and sand and treated preemergence with test chemicals formulated in a non-phytotoxic solvent mixture which included a surfactant.
as §1

[3] = test system: blackgrass (Alopecurus myosuroides); experiment: as above; settings: Alopecurus myosuroides, post-emergence, Postemergence
From the text: as §2, §1

[4] = test system: ragweed (common ragweed, Ambrosia elatior); experiment: as above; settings: Ambrosia artemisiifolia, post-emergence, Postemergence
From the text: as §2, §1

soybean (Glycine max) = experiment: as above; settings: Glycine max, post-emergence, Postemergence
From the text: as §2, §1

corn (Zea mays) = experiment: as above; settings: Zea mays, post-emergence, Postemergence
From the text: as §2, §1

[5] = test system: large (Lg) crabgrass (Digitaria sanguinalis); experiment: as above; settings: Digitaria sanguinalis, post-emergence, Postemergence
From the text: as §2, §1

[6] = test system: pigweed (Amaranthus retroflexus); experiment: as above; settings: Amaranthus retroflexus, post-emergence, Postemergence
From the text: as §2, §1

[7] = test system: giant foxtail (Setaria faberii); experiment: as above; settings: Setaria faberi, post-emergence, Postemergence
From the text: as §2, §1

[8] = test system: Italian ryegrass (Lolium multiflorum); experiment: as above; settings: Lolium multiflorum, post-emergence, Postemergence
From the text: as §2, §1

[9] = test system: winter wheat (Triticum aestivum); experiment: as above; settings: Triticum aestivum, post-emergence, Postemergence
From the text: as §2, §1

[10] = test system: galium (catchweed bedstraw, Galium aparine); experiment: as above; settings: Galium, post-emergence, Postemergence
From the text: as §2, §1

For CCCn1cc(C(=O)c2ccccc2)c(-c2cc(Cl)cc(Cl)c2)n1 [Compound 61, [3-(3,5-dichlorophenyl)-1-propyl-1H-pyrazol-4-yl]phenylmethanone], which pest or weed control at 62 g/ha (wild oat (Avena fatua); 62 g ai/ha) is on record?
Its pest or weed control at 62 g/ha is 0%.

What about the pest or weed control at 125 g/ha (wild oat (Avena fatua); 125 g ai/ha) of the same compound?
Its pest or weed control at 125 g/ha is 0%.

And the pest or weed control at 250 g/ha (wild oat (Avena fatua); 250 g ai/ha, scale 0 to 100)?
The pest or weed control at 250 g/ha was 0%.

What about the pest or weed control at 31 g/ha ([1]; 31 g ai/ha) of the same compound?
The pest or weed control at 31 g/ha was 20%.

What about the pest or weed control at 125 g/ha ([1]; 125 g ai/ha) of the same compound?
The pest or weed control at 125 g/ha was 75%.

What about the pest or weed control at 250 g/ha ([1]; 250 g ai/ha, scale 0 to 100) of the same compound?
Its pest or weed control at 250 g/ha is 75%.

And the pest or weed control at 62 g/ha (kochia (Kochia scoparia); 62 g ai/ha)?
Its pest or weed control at 62 g/ha is 40%.

And the pest or weed control at 125 g/ha (kochia (Kochia scoparia); 125 g ai/ha)?
The pest or weed control at 125 g/ha was 45%.

And the pest or weed control at 250 g/ha (kochia (Kochia scoparia); 250 g ai/ha, scale 0 to 100)?
The pest or weed control at 250 g/ha was 50%.

What about the pest or weed control at 62 g/ha ([2]; 62 g ai/ha, read-out: Plant response rating (0 to 100), Nutsedge, Yellow) of the same compound?
The pest or weed control at 62 g/ha was 0%.

What about the pest or weed control at 125 g/ha ([2]; 125 g ai/ha, read-out: Plant response rating (0 to 100), Nutsedge, Yellow) of the same compound?
Its pest or weed control at 125 g/ha is 5%.

And the pest or weed control at 250 g/ha ([2]; 250 g ai/ha, scale 0 to 100)?
The pest or weed control at 250 g/ha was 5%.

And the pest or weed control at 31 g/ha ([3]; 31 g ai/ha, read-out: Plant response rating (0 to 100), Blackgrass)?
The pest or weed control at 31 g/ha was 0%.

And the pest or weed control at 62 g/ha ([3]; 62 g ai/ha, read-out: Plant response rating (0 to 100), Blackgrass)?
The pest or weed control at 62 g/ha was 0%.

And the pest or weed control at 125 g/ha ([3]; 125 g ai/ha, read-out: Plant response rating (0 to 100), Blackgrass)?
The pest or weed control at 125 g/ha was 0%.

What about the pest or weed control at 250 g/ha ([3]; 250 g ai/ha, scale 0 to 100) of the same compound?
Its pest or weed control at 250 g/ha is 0%.

And the pest or weed control at 62 g/ha ([4]; 62 g ai/ha, read-out: Plant response rating (0 to 100), Ragweed)?
Its pest or weed control at 62 g/ha is 10%.

And the pest or weed control at 125 g/ha ([4]; 125 g ai/ha, read-out: Plant response rating (0 to 100), Ragweed)?
The pest or weed control at 125 g/ha was 40%.

And the pest or weed control at 250 g/ha ([4]; 250 g ai/ha, scale 0 to 100)?
Its pest or weed control at 250 g/ha is 40%.

And the plant injury at 62 g/ha (soybean (Glycine max); 62 g ai/ha, read-out: Plant response rating (0 to 100), Soybean)?
Its plant injury at 62 g/ha is 0%.

What about the plant injury at 125 g/ha (soybean (Glycine max); 125 g ai/ha, read-out: Plant response rating (0 to 100), Soybean) of the same compound?
The plant injury at 125 g/ha was 10%.

And the plant injury at 250 g/ha (soybean (Glycine max); 250 g ai/ha, scale 0 to 100)?
The plant injury at 250 g/ha was 15%.

What about the plant injury at 31 g/ha (corn (Zea mays); 31 g ai/ha) of the same compound?
Its plant injury at 31 g/ha is 5%.

And the plant injury at 62 g/ha (corn (Zea mays); 62 g ai/ha)?
Its plant injury at 62 g/ha is 5%.

What about the plant injury at 125 g/ha (corn (Zea mays); 125 g ai/ha) of the same compound?
Its plant injury at 125 g/ha is 5%.

What about the Corn plant response rating (crop injury, 0 = no effect, 100 = complete kill) at 250 g/ha (corn (Zea mays); 250 g ai/ha, scale 0 to 100) of the same compound?
The Corn plant response rating (crop injury, 0 = no effect, 100 = complete kill) at 250 g/ha was 5%.

And the pest or weed control at 31 g/ha ([5]; 31 g ai/ha, read-out: Plant response rating (0 to 100), Crabgrass, Large)?
The pest or weed control at 31 g/ha was 5%.

What about the pest or weed control at 62 g/ha ([5]; 62 g ai/ha, read-out: Plant response rating (0 to 100), Crabgrass, Large) of the same compound?
Its pest or weed control at 62 g/ha is 5%.

What about the pest or weed control at 125 g/ha ([5]; 125 g ai/ha, read-out: Plant response rating (0 to 100), Crabgrass, Large) of the same compound?
The pest or weed control at 125 g/ha was 5%.

And the pest or weed control at 250 g/ha ([5]; 250 g ai/ha, scale 0 to 100)?
The pest or weed control at 250 g/ha was 5%.

What about the pest or weed control at 62 g/ha ([6]; 62 g ai/ha, read-out: Plant response rating (0 to 100), Pigweed) of the same compound?
The pest or weed control at 62 g/ha was 100%.

And the pest or weed control at 125 g/ha ([6]; 125 g ai/ha, read-out: Plant response rating (0 to 100), Pigweed)?
The pest or weed control at 125 g/ha was 100%.

And the pest or weed control at 250 g/ha ([6]; 250 g ai/ha, scale 0 to 100)?
The pest or weed control at 250 g/ha was 100%.

What about the pest or weed control at 31 g/ha ([7]; 31 g ai/ha, read-out: Plant response rating (0 to 100), Foxtail, Giant) of the same compound?
The pest or weed control at 31 g/ha was 5%.

What about the pest or weed control at 62 g/ha ([7]; 62 g ai/ha, read-out: Plant response rating (0 to 100), Foxtail, Giant) of the same compound?
The pest or weed control at 62 g/ha was 5%.

And the pest or weed control at 125 g/ha ([7]; 125 g ai/ha, read-out: Plant response rating (0 to 100), Foxtail, Giant)?
Its pest or weed control at 125 g/ha is 5%.

What about the pest or weed control at 250 g/ha ([7]; 250 g ai/ha, scale 0 to 100) of the same compound?
The pest or weed control at 250 g/ha was 10%.

What about the pest or weed control at 62 g/ha ([8]; 62 g ai/ha, read-out: Plant response rating (0 to 100), Ryegrass, Italian) of the same compound?
The pest or weed control at 62 g/ha was 0%.

And the pest or weed control at 125 g/ha ([8]; 125 g ai/ha, read-out: Plant response rating (0 to 100), Ryegrass, Italian)?
Its pest or weed control at 125 g/ha is 0%.

And the pest or weed control at 250 g/ha ([8]; 250 g ai/ha, scale 0 to 100)?
Its pest or weed control at 250 g/ha is 0%.

And the plant injury at 62 g/ha ([9]; 62 g ai/ha, read-out: Plant response rating (0 to 100), Wheat)?
Its plant injury at 62 g/ha is 0%.

And the plant injury at 125 g/ha ([9]; 125 g ai/ha, read-out: Plant response rating (0 to 100), Wheat)?
Its plant injury at 125 g/ha is 0%.

And the plant injury at 250 g/ha ([9]; 250 g ai/ha, scale 0 to 100)?
The plant injury at 250 g/ha was 0%.

And the pest or weed control at 31 g/ha ([10]; 31 g ai/ha, read-out: Plant response rating (0 to 100), Galium)?
Its pest or weed control at 31 g/ha is 0%.

What about the pest or weed control at 62 g/ha ([10]; 62 g ai/ha, read-out: Plant response rating (0 to 100), Galium) of the same compound?
Its pest or weed control at 62 g/ha is 0%.

What about the pest or weed control at 125 g/ha ([10]; 125 g ai/ha, read-out: Plant response rating (0 to 100), Galium) of the same compound?
The pest or weed control at 125 g/ha was 0%.

What about the pest or weed control at 250 g/ha ([10]; 250 g ai/ha, scale 0 to 100) of the same compound?
The pest or weed control at 250 g/ha was 0%.
